{"source": "paper PMC9506414", "about": "“Novel 2,6,9-Trisubstituted Purines as Potent CDK Inhibitors Alleviating Trastuzumab-Resistance of HER2-Positive Breast Cancers” (Pharmaceuticals, 2022)", "experiment_in_all_cases": "Kinome-wide inhibition profiling", "format_in_all_cases": "biochemical", "key": {"TNIK": {"target": "T1, TNIK (Homo sapiens, UniProt Q9UKE5)", "T1 construct": "purchased Reaction Biology Corp", "description": "(§1) In vitro CDK12/cyclinK assays for all compounds and in vitro kinome-wide inhibition profiling of 30d at 10 μM were performed by a CRO company (Reaction Biology Corp., San Diego, CA, USA)."}, "YANK3": {"target": "T2, YANK3 (Homo sapiens, UniProt Q86UX6)", "T2 construct": "purchased Reaction Biology Corp", "T2 sequence (Q86UX6 whole entry)": "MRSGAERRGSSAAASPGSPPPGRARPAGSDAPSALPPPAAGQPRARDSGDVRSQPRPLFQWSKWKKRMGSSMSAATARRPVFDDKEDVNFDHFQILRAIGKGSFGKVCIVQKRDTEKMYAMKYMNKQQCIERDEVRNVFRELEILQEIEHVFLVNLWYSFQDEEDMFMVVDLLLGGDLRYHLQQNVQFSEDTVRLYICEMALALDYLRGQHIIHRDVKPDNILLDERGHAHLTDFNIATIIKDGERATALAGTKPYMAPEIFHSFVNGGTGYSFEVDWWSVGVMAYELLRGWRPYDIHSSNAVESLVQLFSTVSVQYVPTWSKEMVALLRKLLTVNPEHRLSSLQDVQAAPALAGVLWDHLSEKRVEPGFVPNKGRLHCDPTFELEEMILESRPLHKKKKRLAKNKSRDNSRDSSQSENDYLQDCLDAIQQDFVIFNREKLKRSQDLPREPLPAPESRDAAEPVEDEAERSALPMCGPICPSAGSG", "description": "as §1"}, "YSK1": {"target": "T3, YSK1 (Homo sapiens, UniProt O00506)", "T3 construct": "purchased Reaction Biology Corp", "description": "as §1"}, "PRKCH": {"target": "T4, PRKCH (Homo sapiens, UniProt P24723)", "T4 construct": "purchased Reaction Biology Corp", "description": "as §1"}, "Haspin": {"target": "T5, Haspin (Homo sapiens, UniProt Q8TF76)", "T5 construct": "purchased Reaction Biology Corp", "description": "as §1"}, "CSK": {"target": "T6, CSK (Homo sapiens, UniProt P41240)", "T6 construct": "purchased Reaction Biology Corp", "description": "as §1"}, "LCK": {"target": "T7, LCK (Homo sapiens, UniProt P06239)", "T7 construct": "purchased Reaction Biology Corp", "description": "as §1"}, "MST2": {"target": "T8, MST2 (Homo sapiens, UniProt Q13188)", "T8 construct": "purchased Reaction Biology Corp", "description": "as §1"}, "MLK1": {"target": "T9, MLK1 (Homo sapiens, UniProt P80192)", "T9 construct": "purchased Reaction Biology Corp", "description": "as §1"}, "MYO3A": {"target": "T10, MYO3A (Homo sapiens, UniProt Q8NEV4)", "T10 construct": "purchased Reaction Biology Corp", "description": "as §1"}, "TRKC": {"target": "T11, TRKC (Homo sapiens, UniProt Q16288)", "T11 construct": "purchased Reaction Biology Corp", "description": "as §1"}, "PAK4": {"target": "T12, PAK4 (Homo sapiens, UniProt O96013)", "T12 construct": "purchased Reaction Biology Corp", "description": "as §1"}, "TSSK1B": {"target": "T13, TSSK1B (Homo sapiens, UniProt Q9BXA7)", "T13 construct": "purchased Reaction Biology Corp", "description": "as §1"}, "ITK": {"target": "T14, ITK (Homo sapiens, UniProt Q08881)", "T14 construct": "purchased Reaction Biology Corp", "description": "as §1"}, "SGK2": {"target": "T15, SGK2 (Homo sapiens, UniProt Q9HBY8)", "T15 construct": "purchased Reaction Biology Corp", "T15 sequence (Q9HBY8 whole entry)": "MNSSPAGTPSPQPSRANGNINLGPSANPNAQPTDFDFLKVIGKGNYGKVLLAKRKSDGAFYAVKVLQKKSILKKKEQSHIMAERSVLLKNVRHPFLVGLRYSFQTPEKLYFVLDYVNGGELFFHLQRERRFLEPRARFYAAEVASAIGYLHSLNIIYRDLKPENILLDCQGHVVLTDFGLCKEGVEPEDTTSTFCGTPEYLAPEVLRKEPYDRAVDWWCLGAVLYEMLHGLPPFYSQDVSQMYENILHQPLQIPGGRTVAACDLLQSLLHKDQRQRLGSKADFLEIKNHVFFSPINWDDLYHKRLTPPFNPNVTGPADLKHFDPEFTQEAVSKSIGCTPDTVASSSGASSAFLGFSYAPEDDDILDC", "description": "as §1"}, "PDPK1": {"target": "T16, PDPK1 (Homo sapiens, UniProt O15530)", "T16 construct": "purchased Reaction Biology Corp", "description": "as §1"}, "EPHA2": {"target": "T17, EPHA2 (Homo sapiens, UniProt P29317)", "T17 construct": "purchased Reaction Biology Corp", "T17 sequence (P29317 24-976)": "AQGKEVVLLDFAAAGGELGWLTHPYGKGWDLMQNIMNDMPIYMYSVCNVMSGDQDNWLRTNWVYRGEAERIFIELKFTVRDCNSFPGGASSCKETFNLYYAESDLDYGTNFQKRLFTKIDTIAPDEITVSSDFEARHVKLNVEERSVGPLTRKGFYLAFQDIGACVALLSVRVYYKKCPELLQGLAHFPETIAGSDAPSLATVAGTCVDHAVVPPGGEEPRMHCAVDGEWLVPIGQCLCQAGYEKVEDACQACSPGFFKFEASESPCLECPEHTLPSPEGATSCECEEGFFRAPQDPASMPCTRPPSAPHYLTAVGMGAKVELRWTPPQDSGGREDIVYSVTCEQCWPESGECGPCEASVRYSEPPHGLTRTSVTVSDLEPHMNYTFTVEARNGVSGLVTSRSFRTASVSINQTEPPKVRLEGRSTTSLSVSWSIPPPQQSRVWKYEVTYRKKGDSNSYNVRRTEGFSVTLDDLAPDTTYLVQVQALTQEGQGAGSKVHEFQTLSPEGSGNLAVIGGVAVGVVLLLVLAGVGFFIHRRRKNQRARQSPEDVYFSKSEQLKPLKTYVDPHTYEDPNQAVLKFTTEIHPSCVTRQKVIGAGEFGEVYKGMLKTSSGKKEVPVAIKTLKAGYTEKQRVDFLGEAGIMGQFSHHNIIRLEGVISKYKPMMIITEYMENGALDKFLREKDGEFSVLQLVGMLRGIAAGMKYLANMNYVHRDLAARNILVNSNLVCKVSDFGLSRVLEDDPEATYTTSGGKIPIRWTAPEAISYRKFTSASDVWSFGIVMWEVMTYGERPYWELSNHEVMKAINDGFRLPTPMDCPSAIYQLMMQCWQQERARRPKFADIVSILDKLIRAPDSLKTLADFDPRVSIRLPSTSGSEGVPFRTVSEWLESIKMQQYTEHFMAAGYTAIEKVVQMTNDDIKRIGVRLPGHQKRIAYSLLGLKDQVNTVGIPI", "description": "as §1"}, "MAP3K8": {"target": "T18, MAP3K8 (Homo sapiens, UniProt P41279)", "T18 construct": "purchased Reaction Biology Corp", "description": "as §1"}, "TLK2": {"target": "T19, TLK2 (Homo sapiens, UniProt Q86UE8)", "T19 construct": "purchased Reaction Biology Corp", "description": "as §1"}, "WEE1": {"target": "T20, WEE1 (Homo sapiens, UniProt P30291)", "T20 construct": "purchased Reaction Biology Corp", "description": "as §1"}, "IRAK4": {"target": "T21, IRAK4 (Homo sapiens, UniProt Q9NWZ3)", "T21 construct": "purchased Reaction Biology Corp", "description": "as §1"}, "EPHA8": {"target": "T22, EPHA8 (Homo sapiens, UniProt P29322)", "T22 construct": "purchased Reaction Biology Corp", "T22 sequence (P29322 28-1005)": "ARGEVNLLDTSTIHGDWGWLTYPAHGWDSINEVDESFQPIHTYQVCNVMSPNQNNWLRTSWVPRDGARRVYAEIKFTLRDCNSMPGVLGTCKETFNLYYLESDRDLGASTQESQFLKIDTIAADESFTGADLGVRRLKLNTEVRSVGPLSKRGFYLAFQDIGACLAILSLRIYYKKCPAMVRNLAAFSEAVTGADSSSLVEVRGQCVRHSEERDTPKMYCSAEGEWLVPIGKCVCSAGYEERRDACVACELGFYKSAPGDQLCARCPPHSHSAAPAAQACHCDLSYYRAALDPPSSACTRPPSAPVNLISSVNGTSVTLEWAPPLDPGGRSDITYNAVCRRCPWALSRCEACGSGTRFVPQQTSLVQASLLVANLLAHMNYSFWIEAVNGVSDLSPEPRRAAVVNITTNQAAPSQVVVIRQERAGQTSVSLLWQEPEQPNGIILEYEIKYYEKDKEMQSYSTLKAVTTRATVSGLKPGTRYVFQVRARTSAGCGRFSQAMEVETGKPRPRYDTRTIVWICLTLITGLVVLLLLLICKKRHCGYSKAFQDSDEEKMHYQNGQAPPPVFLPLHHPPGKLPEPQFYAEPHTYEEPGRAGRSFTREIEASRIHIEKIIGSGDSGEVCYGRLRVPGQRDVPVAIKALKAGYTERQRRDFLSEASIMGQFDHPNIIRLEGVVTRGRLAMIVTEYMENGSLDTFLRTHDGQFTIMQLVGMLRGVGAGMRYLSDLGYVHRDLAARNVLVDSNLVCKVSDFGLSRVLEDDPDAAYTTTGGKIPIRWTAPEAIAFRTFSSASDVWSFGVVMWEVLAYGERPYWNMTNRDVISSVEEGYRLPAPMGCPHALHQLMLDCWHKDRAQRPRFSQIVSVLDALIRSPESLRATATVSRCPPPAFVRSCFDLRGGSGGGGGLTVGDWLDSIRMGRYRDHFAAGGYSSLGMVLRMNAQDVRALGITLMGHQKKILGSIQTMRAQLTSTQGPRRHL", "description": "as §1"}, "MKK4": {"target": "T23, MKK4 (Homo sapiens, UniProt P45985)", "T23 construct": "purchased Reaction Biology Corp", "description": "as §1"}, "PKCzeta": {"target": "T24, PKCzeta (Homo sapiens, UniProt Q05513)", "T24 construct": "purchased Reaction Biology Corp", "description": "as §1"}, "TAOK1": {"target": "T25, TAOK1 (Homo sapiens, UniProt Q7L7X3)", "T25 construct": "purchased Reaction Biology Corp", "description": "as §1"}, "NEK5": {"target": "T26, NEK5 (Homo sapiens, UniProt Q6P3R8)", "T26 construct": "purchased Reaction Biology Corp", "description": "as §1"}, "MELK": {"target": "T27, MELK (Homo sapiens, UniProt Q14680)", "T27 construct": "purchased Reaction Biology Corp", "description": "as §1"}, "HCK": {"target": "T28, HCK (Homo sapiens, UniProt P08631)", "T28 construct": "purchased Reaction Biology Corp", "description": "as §1"}, "HIPK1": {"target": "T29, HIPK1 (Homo sapiens, UniProt Q86Z02)", "T29 construct": "purchased Reaction Biology Corp", "T29 sequence (Q86Z02 whole entry)": "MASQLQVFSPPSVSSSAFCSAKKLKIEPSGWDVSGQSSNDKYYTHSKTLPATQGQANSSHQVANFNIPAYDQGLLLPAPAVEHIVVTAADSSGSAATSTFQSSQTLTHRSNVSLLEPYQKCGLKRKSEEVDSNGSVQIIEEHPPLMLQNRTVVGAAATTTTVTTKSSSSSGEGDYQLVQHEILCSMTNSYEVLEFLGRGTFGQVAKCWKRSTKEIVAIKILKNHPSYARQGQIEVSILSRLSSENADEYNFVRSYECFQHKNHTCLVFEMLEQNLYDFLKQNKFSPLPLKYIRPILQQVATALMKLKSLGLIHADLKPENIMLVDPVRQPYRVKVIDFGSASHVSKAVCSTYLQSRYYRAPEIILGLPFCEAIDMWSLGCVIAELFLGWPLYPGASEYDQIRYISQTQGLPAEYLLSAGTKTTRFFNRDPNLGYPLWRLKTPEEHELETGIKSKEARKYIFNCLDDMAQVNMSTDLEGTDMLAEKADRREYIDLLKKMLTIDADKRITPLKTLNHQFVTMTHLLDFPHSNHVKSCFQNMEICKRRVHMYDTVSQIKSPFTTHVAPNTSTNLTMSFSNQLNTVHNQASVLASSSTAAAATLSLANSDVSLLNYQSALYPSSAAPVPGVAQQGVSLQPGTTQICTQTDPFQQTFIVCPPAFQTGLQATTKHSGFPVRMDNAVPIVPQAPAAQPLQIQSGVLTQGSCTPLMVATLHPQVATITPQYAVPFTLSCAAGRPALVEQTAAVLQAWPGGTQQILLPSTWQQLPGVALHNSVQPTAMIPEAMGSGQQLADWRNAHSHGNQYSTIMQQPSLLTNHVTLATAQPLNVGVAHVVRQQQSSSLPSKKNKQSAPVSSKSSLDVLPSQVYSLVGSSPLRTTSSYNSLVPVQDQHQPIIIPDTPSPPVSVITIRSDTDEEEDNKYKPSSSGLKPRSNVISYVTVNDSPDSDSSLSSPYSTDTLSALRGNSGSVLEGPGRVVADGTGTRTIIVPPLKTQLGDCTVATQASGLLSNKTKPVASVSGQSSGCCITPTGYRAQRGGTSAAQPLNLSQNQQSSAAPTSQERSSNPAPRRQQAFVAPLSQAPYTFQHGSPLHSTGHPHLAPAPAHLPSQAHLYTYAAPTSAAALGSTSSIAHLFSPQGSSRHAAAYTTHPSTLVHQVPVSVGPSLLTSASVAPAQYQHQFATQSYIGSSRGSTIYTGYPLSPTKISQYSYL", "description": "as §1"}, "PFTK1": {"target": "T30, PFTK1 (Homo sapiens, UniProt O94921)", "T30 construct": "purchased Reaction Biology Corp", "T30 sequence (O94921 whole entry)": "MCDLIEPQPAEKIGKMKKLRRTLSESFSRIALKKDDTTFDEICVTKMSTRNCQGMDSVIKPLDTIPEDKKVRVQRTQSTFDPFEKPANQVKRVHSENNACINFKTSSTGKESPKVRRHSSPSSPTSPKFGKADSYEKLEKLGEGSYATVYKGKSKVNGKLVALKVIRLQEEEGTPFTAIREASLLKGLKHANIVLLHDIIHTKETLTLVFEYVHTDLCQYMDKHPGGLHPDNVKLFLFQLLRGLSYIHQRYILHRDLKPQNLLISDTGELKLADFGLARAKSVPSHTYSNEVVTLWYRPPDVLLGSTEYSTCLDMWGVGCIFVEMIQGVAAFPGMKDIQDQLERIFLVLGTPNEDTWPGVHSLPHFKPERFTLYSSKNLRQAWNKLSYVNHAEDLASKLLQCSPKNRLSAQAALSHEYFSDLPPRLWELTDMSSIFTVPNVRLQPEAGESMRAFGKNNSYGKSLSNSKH", "T30 sequence (Q8ND76 whole entry partner)": "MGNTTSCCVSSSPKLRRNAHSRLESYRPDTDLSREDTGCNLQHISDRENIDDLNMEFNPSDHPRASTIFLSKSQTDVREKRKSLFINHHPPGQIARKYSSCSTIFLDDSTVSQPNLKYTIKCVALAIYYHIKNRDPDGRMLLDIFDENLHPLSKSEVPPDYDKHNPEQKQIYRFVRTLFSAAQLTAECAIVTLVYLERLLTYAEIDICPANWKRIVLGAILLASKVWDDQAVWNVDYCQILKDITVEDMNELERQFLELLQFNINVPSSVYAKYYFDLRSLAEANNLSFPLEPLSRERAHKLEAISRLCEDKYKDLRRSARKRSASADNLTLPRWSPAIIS", "description": "as §1"}, "TESK2": {"target": "T31, TESK2 (Homo sapiens, UniProt Q96S53)", "T31 construct": "purchased Reaction Biology Corp", "description": "as §1"}, "VRK1": {"target": "T32, VRK1 (Homo sapiens, UniProt Q99986)", "T32 construct": "purchased Reaction Biology Corp", "description": "as §1"}, "FAK": {"target": "T33, FAK (Homo sapiens, UniProt Q05397)", "T33 construct": "purchased Reaction Biology Corp", "description": "as §1"}, "PRKCI": {"target": "T34, PRKCI (Homo sapiens, UniProt P41743)", "T34 construct": "purchased Reaction Biology Corp", "description": "as §1"}, "CLK2": {"target": "T35, CLK2 (Homo sapiens, UniProt P49760)", "T35 construct": "purchased Reaction Biology Corp", "description": "as §1"}, "RSK2": {"target": "T36, RSK2 (Homo sapiens, UniProt P51812)", "T36 construct": "purchased Reaction Biology Corp", "description": "as §1"}, "CAMK4": {"target": "T37, CAMK4 (Homo sapiens, UniProt Q16566)", "T37 construct": "purchased Reaction Biology Corp", "description": "as §1"}, "RIPK2": {"target": "T38, RIPK2 (Homo sapiens, UniProt O43353)", "T38 construct": "purchased Reaction Biology Corp", "description": "as §1"}, "FGFR2": {"target": "T39, FGFR2 (Homo sapiens, UniProt P21802)", "T39 construct": "purchased Reaction Biology Corp", "description": "as §1"}, "JNK1": {"target": "T40, JNK1 (Homo sapiens, UniProt P45983)", "T40 construct": "purchased Reaction Biology Corp", "description": "as §1"}, "MNK1": {"target": "T41, MNK1 (Homo sapiens, UniProt Q9BUB5)", "T41 construct": "purchased Reaction Biology Corp", "description": "as §1"}, "NDR1": {"target": "T42, NDR1 (Homo sapiens, UniProt Q15208)", "T42 construct": "purchased Reaction Biology Corp", "description": "as §1"}, "INSRR": {"target": "T43, INSRR (Homo sapiens, UniProt P14616)", "T43 construct": "purchased Reaction Biology Corp", "description": "as §1"}, "PKN2": {"target": "T44, PKN2 (Homo sapiens, UniProt Q16513)", "T44 construct": "purchased Reaction Biology Corp", "description": "as §1"}}, "data": [{"compound": "CCn1cnc2c(NCc3ccc(-c4ccccn4)nc3)nc(-c3ccc(N)nc3)nc21", "note": "[Compound 30d, N-([2,2′-Bipyridin]-5-ylmethyl)-2-(6-aminopyridin-3-yl)-9-ethyl-9H-purin-6-amine]", "values": [{"measurement": "remaining activity at 10 µM", "setting": "TNIK", "result": 69, "unit": "%"}, {"measurement": "remaining activity at 10 µM", "setting": "YANK3", "result": 86.6, "unit": "%"}, {"measurement": "remaining activity at 10 µM", "setting": "YSK1", "result": 23.1, "unit": "%"}, {"measurement": "remaining activity at 10 µM", "setting": "PRKCH", "result": 87.9, "unit": "%"}, {"measurement": "remaining activity at 10 µM", "setting": "Haspin", "result": 79.4, "unit": "%"}, {"measurement": "remaining activity at 10 µM", "setting": "CSK", "result": 54.8, "unit": "%"}, {"measurement": "remaining activity at 10 µM", "setting": "LCK", "result": 83.6, "unit": "%"}, {"measurement": "remaining activity at 10 µM", "setting": "MST2", "result": 53.5, "unit": "%"}, {"measurement": "remaining activity at 10 µM", "setting": "MLK1", "result": 27.9, "unit": "%"}, {"measurement": "remaining activity at 10 µM", "setting": "MYO3A", "result": 71.3, "unit": "%"}, {"measurement": "remaining activity at 10 µM", "setting": "TRKC", "result": 54.9, "unit": "%"}, {"measurement": "remaining activity at 10 µM", "setting": "PAK4", "result": 12.9, "unit": "%"}, {"measurement": "remaining activity at 10 µM", "setting": "TSSK1B", "result": 38, "unit": "%"}, {"measurement": "remaining activity at 10 µM", "setting": "ITK", "result": 81.7, "unit": "%"}, {"measurement": "remaining activity at 10 µM", "setting": "SGK2", "result": 84.7, "unit": "%"}, {"measurement": "remaining activity at 10 µM", "setting": "PDPK1", "result": 105, "unit": "%"}, {"measurement": "remaining activity at 10 µM", "setting": "EPHA2", "result": 42.3, "unit": "%"}, {"measurement": "remaining activity at 10 µM", "setting": "MAP3K8", "result": 102, "unit": "%"}, {"measurement": "remaining activity at 10 µM", "setting": "TLK2", "result": 72.2, "unit": "%"}, {"measurement": "remaining activity at 10 µM", "setting": "WEE1", "result": 90.2, "unit": "%"}, {"measurement": "remaining activity at 10 µM", "setting": "IRAK4", "result": 94.8, "unit": "%"}, {"measurement": "remaining activity at 10 µM", "setting": "EPHA8", "result": 94, "unit": "%"}, {"measurement": "remaining activity at 10 µM", "setting": "MKK4", "result": 96.4, "unit": "%"}, {"measurement": "remaining activity at 10 µM", "setting": "PKCzeta", "result": 90.2, "unit": "%"}, {"measurement": "remaining activity at 10 µM", "setting": "TAOK1", "result": 28.1, "unit": "%"}, {"measurement": "remaining activity at 10 µM", "setting": "NEK5", "result": 83.8, "unit": "%"}, {"measurement": "remaining activity at 10 µM", "setting": "MELK", "result": 21.2, "unit": "%"}, {"measurement": "remaining activity at 10 µM", "setting": "HCK", "result": 46.5, "unit": "%"}, {"measurement": "remaining activity at 10 µM", "setting": "HIPK1", "result": 93, "unit": "%"}, {"measurement": "remaining activity at 10 µM", "setting": "PFTK1", "result": 14, "unit": "%"}, {"measurement": "remaining activity at 10 µM", "setting": "TESK2", "result": 83.7, "unit": "%"}, {"measurement": "remaining activity at 10 µM", "setting": "VRK1", "result": 87.3, "unit": "%"}, {"measurement": "remaining activity at 10 µM", "setting": "FAK", "result": 52.5, "unit": "%"}, {"measurement": "remaining activity at 10 µM", "setting": "PRKCI", "result": 86.1, "unit": "%"}, {"measurement": "remaining activity at 10 µM", "setting": "CLK2", "result": 11.7, "unit": "%"}, {"measurement": "remaining activity at 10 µM", "setting": "RSK2", "result": 69.4, "unit": "%"}, {"measurement": "remaining activity at 10 µM", "setting": "CAMK4", "result": 95.2, "unit": "%"}, {"measurement": "remaining activity at 10 µM", "setting": "RIPK2", "result": 66.1, "unit": "%"}, {"measurement": "remaining activity at 10 µM", "setting": "FGFR2", "result": 33.7, "unit": "%"}, {"measurement": "remaining activity at 10 µM", "setting": "JNK1", "result": 41.6, "unit": "%"}, {"measurement": "remaining activity at 10 µM", "setting": "MNK1", "result": 89.3, "unit": "%"}, {"measurement": "remaining activity at 10 µM", "setting": "NDR1", "result": 28.3, "unit": "%"}, {"measurement": "remaining activity at 10 µM", "setting": "INSRR", "result": 31.1, "unit": "%"}, {"measurement": "remaining activity at 10 µM", "setting": "PKN2", "result": 85.8, "unit": "%"}]}]}
